The text below walks through data of patent US12435092B2, “Substituted imidazo[1,2-A]quinazolines as inhibitors of PARG” (858 Therapeutics, Inc., priority 2022, dated 2025).

The test addresses T1, cellular PARG (Homo sapiens, UniProt Q86W56).
T1 construct: endogenous in cells; host or cells: HeLa
Briefly: Nuclear PAR accumulation assay (immunofluorescence high-content imaging). The class given is cell-based. The conditions noted are these: HeLa cells, 1 hour compound treatment then MMS 50 μg/mL for an additional hour. Summed up:
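HeLa cells pretreated 1 h at 37 °C with compound, then 1 h with 50 μg/mL MMS (final), methanol-fixed and immunostained for PAR with DAPI nuclear counterstain. Nuclear PAR intensity and percent PAR-positive cells quantified by high-content imaging (≥1,000 cells/well). IC50 by four-parameter logistic fit, normalized to 0.1% DMSO and reference-compound controls.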

T1 sequence (Q86W56 whole entry): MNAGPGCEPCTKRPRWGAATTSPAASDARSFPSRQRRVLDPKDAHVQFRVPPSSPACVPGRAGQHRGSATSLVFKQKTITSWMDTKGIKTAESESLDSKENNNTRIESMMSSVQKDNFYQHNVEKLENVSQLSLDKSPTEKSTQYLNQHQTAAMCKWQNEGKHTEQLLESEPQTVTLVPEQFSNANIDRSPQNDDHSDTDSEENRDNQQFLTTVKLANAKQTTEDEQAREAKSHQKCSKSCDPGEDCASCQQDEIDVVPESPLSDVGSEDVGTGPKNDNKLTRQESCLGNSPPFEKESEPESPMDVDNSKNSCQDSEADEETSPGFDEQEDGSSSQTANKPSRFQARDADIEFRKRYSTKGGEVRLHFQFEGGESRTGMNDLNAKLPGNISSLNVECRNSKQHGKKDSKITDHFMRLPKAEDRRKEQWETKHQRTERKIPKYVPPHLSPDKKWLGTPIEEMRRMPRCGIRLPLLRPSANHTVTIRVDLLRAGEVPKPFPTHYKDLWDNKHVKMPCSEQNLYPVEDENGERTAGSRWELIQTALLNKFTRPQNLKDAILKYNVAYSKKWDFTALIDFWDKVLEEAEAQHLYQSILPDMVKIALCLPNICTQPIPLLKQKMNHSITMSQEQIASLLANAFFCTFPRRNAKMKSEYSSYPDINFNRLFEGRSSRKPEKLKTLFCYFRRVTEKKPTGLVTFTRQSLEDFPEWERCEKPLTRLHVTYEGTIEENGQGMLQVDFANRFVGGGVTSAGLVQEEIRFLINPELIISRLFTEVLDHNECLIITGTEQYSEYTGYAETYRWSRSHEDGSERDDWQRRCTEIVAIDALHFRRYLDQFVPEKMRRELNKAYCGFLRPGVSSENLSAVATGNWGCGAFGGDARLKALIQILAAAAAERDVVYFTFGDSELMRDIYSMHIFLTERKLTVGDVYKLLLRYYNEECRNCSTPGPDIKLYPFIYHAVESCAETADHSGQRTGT

For the compound `C[C@@H]1CN=C2N(Cc3cn(C)nc3C(F)(F)F)C(=O)c3cc(S(=O)(=O)NC4(C)CC4)ccc3N21` [Example 55, (R)-1-methyl-4-((1-methyl-3-(trifluoromethyl)-1H-pyrazol-4-yl)methyl)-N-(1-methylcyclopropyl)-5-oxo-1,2,4,5-tetrahydroimidazo[1,2-a]quinazoline-7-sulfonamide], the 50% inhibitory concentration (IC50) (as a rule, the concentration that inhibits the measured activity by half) is not above 0.1 µM.
Consider `Cc1nnc(CN2C(=O)c3cc(S(=O)(=O)NC4(C)CC4)ccc3N3C2=NC[C@H]3C)s1` [Example 56, (R)-1-methyl-4-((5-methyl-1,3,4-thiadiazol-2-yl)methyl)-N-(1-methylcyclopropyl)-5-oxo-1,2,4,5-tetrahydroimidazo[1,2-a]quinazoline-7-sulfonamide], for which the IC50 is not above 0.1 µM.
The compound `C[C@@H]1CN=C2N(Cc3cnn(C(F)F)c3)C(=O)c3cc(S(=O)(=O)NC4(C)CC4)ccc3N21` [Example 57, (R)-4-((1-(difluoromethyl)-1H-pyrazol-4-yl)methyl)-1-methyl-N-(1-methylcydopropyl)-5-oxo-1,2,4,5-tetrahydroimidazo[1,2-a]quinazoline-7-sulfonamide] had an IC50 not above 0.1 µM.
`C#CCN1C(=O)c2cc(S(=O)(=O)NC3(C)CC3)ccc2N2C1=NC[C@H]2C` [Example 58, (R)-1-methyl-N-(1-methylcyclopropyl)-5-oxo-4-(prop-2-yn-1-yl)-1,2,4,5-tetrahydroimidazo[1,2-a]quinazoline-7-sulfonamide]: the IC50 is not above 0.1 µM.
In turn, `CC#C[C@@H]1CN=C2N(Cc3cnn(C)c3)C(=O)c3cc(S(=O)(=O)NC4(C)CC4)ccc3N21` [Example 59, (R)-4-((1-methyl-1H-pyrazol-4-yl)methyl)-N-(1-methylcyclopropyl)-5-oxo-1-(prop-1-yn-1-yl)-1,2,4,5-tetrahydroimidazo[1,2-a]quinazoline-7-sulfonamide] had an IC50 not above 0.1 µM.
Then `CC#C[C@H]1CN=C2N(Cc3cnn(C)c3)C(=O)c3cc(S(=O)(=O)NC4(C)CC4)ccc3N21` [Example 60, (S)-4-((1-methyl-1H-pyrazol-4-yl)methyl)-N-(1-methylcyclopropyl)-5-oxo-1-(prop-1-yn-1-yl)-1,2,4,5-tetrahydroimidazo[1,2-a]quinazoline-7-sulfonamide], with 0.1 to 1 µM; and `[2H]C([2H])(c1cnn(C)c1)N1C(=O)c2cc(S(=O)(=O)NC3(C)CC3)ccc2N2C1=NC[C@H]2C` [Example 61, (R)-1-methyl-4-((1-methyl-1H-pyrazol-4-yl)methyl-d2)-N-(1-methylcyclopropyl)-5-oxo-1,2,4,5-tetrahydroimidazo[1,2-a]quinazoline-7-sulfonamide], with not above 0.1 µM.
The compound `[2H]C([2H])(c1c(C)noc1C)N1C(=O)c2cc(S(=O)(=O)NC3(C)CC3)ccc2N2C1=NC[C@H]2C` [Example 62, (R)-4-((3,5-dimethylisoxazol-4-yl)methyl-d2)-1-methyl-N-(1-methylcyclopropyl)-5-oxo-1,2,4,5-tetrahydroimidazo[1,2-a]quinazoline-7-sulfonamide] showed an IC50 not above 0.1 µM.
In turn, `[2H]C([2H])(c1cnc(C)s1)N1C(=O)c2cc(S(=O)(=O)NC3(C)CC3)ccc2N2C1=NC[C@H]2C` [Example 63, (R)-1-methyl-N-(1-methylcyclopropyl)-4-((2-methylthiazol-5-yl)methyl-d2)-5-oxo-1,2,4,5-tetrahydroimidazo[1,2-a]quinazoline-7-sulfonamide] returned an IC50 not above 0.1 µM.
`Cn1cc(CN2C(=O)c3cc(S(=O)(=O)NC4(C)CC4)ccc3N3CC(C)(C)N=C23)cn1` [Example 64, 2,2-dimethyl-4-((1-methyl-1H-pyrazol-4-yl)methyl)-N-(1-methylcyclopropyl)-5-oxo-1,2,4,5-tetrahydroimidazo[1,2-a]quinazoline-7-sulfonamide] registered an IC50 not above 0.1 µM.
`Cn1cc(CN2C(=O)c3cc(S(=O)(=O)NC4(C)CC4)ccc3N3C2=NC[C@H]3C(F)(F)F)cn1` [Example 65, (S)-1-trifluoromethyl-4-((1-methyl-1H-pyrazol-4-yl)methyl)-N-(1-methylcyclopropyl)-5-oxo-1,2,4,5-tetrahydroimidazo[1,2-a]quinazoline-7-sulfonamide]: the IC50 was not above 0.1 µM.
`C[C@@H]1CN=C2N(Cc3cnn(CC#N)c3)C(=O)c3cc(S(=O)(=O)NC4(C)CC4)ccc3N21` [Example 66, (R)-1-methyl-4-((1-cyanomethyl-1H-pyrazol-4-yl)methyl)-N-(1-methylcyclopropyl)-5-oxo-1,2,4,5-tetrahydroimidazo[1,2-a]quinazoline-7-sulfonamide] registered an IC50 not above 0.1 µM.
Take `Cc1noc(C)c1CN1C(=O)c2cc(S(=O)(=O)NC3(C)CC3)ccc2N2C1=NC[C@H]2C(C)C` [Example 67, (R)-4-((3,5-dimethylisoxazol-4-yl)methyl)-1-isopropyl-N-(1-methylcyclopropyl)-5-oxo-1,2,4,5-tetrahydroimidazo[1,2-a]quinazoline-7-sulfonamide]: the concentration for half-maximal inhibition (IC50) was not above 0.1 µM.
Then `Cc1noc(C)c1CN1C(=O)c2cc(S(=O)(=O)NC3(C)CC3)ccc2N2C1=NC[C@@H]2C(C)C` [Example 68, (S)-4-((3,5-dimethylisoxazol-4-yl)methyl)-1-isopropyl-N-(1-methylcyclopropyl)-5-oxo-1,2,4,5-tetrahydroimidazo[1,2-a]quinazoline-7-sulfonamide], with 1 to 10 µM; and `Cc1noc(C)c1CN1C(=O)c2cc(S(=O)(=O)NC3(C)CC3)ccc2N2C1=NC[C@H]2C1CC1` [Example 69, (R)-1-cyclopropyl-4-((3,5-dimethylisoxazol-4-yl)methyl)-N-(1-methylcyclopropyl)-5-oxo-1,2,4,5-tetrahydroimidazo[1,2-a]quinazoline-7-sulfonamide], with not above 0.1 µM; and `Cc1noc(C)c1CN1C(=O)c2cc(S(=O)(=O)NC3(C)CC3)ccc2N2C1=NC[C@@H]2C1CC1` [Example 70, (S)-1-cyclopropyl-4-((3,5-dimethylisoxazol-4-yl)methyl)-N-(1-methylcyclopropyl)-5-oxo-1,2,4,5-tetrahydroimidazo[1,2-a]quinazoline-7-sulfonamide], with 0.1 to 1 µM.
For the compound `C#C[C@@H]1CN=C2N(Cc3c(C)noc3C)C(=O)c3cc(S(=O)(=O)NC4(C)CC4)ccc3N21` [Example 71, (R)-4-((3,5-dimethylisoxazol-4-yl)methyl)-1-ethynyl-N-(1-methylcyclopropyl)-5-oxo-1,2,4,5-tetrahydroimidazo[1,2-a]quinazoline-7-sulfonamide], the IC50 was not above 0.1 µM.
To `C#C[C@H]1CN=C2N(Cc3c(C)noc3C)C(=O)c3cc(S(=O)(=O)NC4(C)CC4)ccc3N21` [Example 72, (S)-4-((3,5-dimethylisoxazol-4-yl)methyl)-1-ethynyl-N-(1-methylcyclopropyl)-5-oxo-1,2,4,5-tetrahydroimidazo[1,2-a]quinazoline-7-sulfonamide] belongs not above 0.1 µM; to `Cc1nc(C)c(CN2C(=O)c3cc(S(=O)(=O)NC4(C)CC4)ccc3N3C2=NC[C@H]3C)s1` [Example 73, (R)-4-((2,4-dimethylthiazol-5-yl)methyl)-1-methyl-N-(1-methylcyclopropyl)-5-oxo-1,2,4,5-tetrahydroimidazo[1,2-a]quinazoline-7-sulfonamide], not above 0.1 µM; to `C[C@@H]1CN=C2N(Cc3cnn(C)c3)C(=O)c3cc(S(=O)(=O)NC4(C)CC4)c(F)cc3N21` [Example 74, (R)-8-fluoro-1-methyl-4-((1-methyl-1H-pyrazol-4-yl)methyl)-N-(1-methylcyclopropyl)-5-oxo-1,2,4,5-tetrahydroimidazo[1,2-a]quinazoline-7-sulfonamide], not above 0.1 µM.
Compound `C[C@H]1CCN=C2N(Cc3cnn(C)c3)C(=O)c3cc(S(=O)(=O)NC4(C)CC4)ccc3N21` [Example 75, (S)-1-methyl-5-((1-methyl-1H-pyrazol-4-yl)methyl)-N-(1-methylcyclopropyl)-6-oxo-2,3,5,6-tetrahydro-1H-pyrimido[1,2-a]quinazoline-8-sulfonamide] had an IC50 not above 0.1 µM.
For the compound `C[C@@H]1CCN=C2N(Cc3cnn(C)c3)C(=O)c3cc(S(=O)(=O)NC4(C)CC4)ccc3N21` [Example 76, (R)-1-methyl-5-((1-methyl-1H-pyrazol-4-yl)methyl)-N-(1-methylcyclopropyl)-6-oxo-2,3,5,6-tetrahydro-1H-pyrimido[1,2-a]quinazoline-8-sulfonamide], the IC50 was not above 0.1 µM.
To `COC[C@@H]1CN=C2N(Cc3cnn(C)c3)C(=O)c3cc(S(=O)(=O)NC4(C)CC4)ccc3N21` [Example 77, (S)-1-(methoxymethyl)-4-((1-methyl-1H-pyrazol-4-yl)methyl)-N-(1-methylcyclopropyl)-5-oxo-1,2,4,5-tetrahydroimidazo[1,2-a]quinazoline-7-sulfonamide] belongs not above 0.1 µM; to `COC[C@H]1CN=C2N(Cc3cnn(C)c3)C(=O)c3cc(S(=O)(=O)NC4(C)CC4)ccc3N21` [Example 78, (R)-1-(methoxymethyl)-4-((1-methyl-1H-pyrazol-4-yl)methyl)-N-(1-methylcyclopropyl)-5-oxo-1,2,4,5-tetrahydroimidazo[1,2-a]quinazoline-7-sulfonamide], 0.1 to 1 µM.
`Cn1cc(CN2C(=O)c3cc(S(=O)(=O)NC4(C)CC4)ccc3N3C2=N[C@H]2CCC[C@H]23)cn1` [Example 79, (7aS,10aR)-6-((1-methyl-1H-pyrazol-4-yl)methyl)-N-(1-methylcyclopropyl)-5-oxo-6,7a,8,9,10,10a-hexahydro-5H-cyclopenta[4,5]imidazo[1,2-a]quinazoline-3-sulfonamide] showed an IC50 not above 0.1 µM.
Regarding `Cc1nn(C)cc1CN1C(=O)c2cc(S(=O)(=O)NC3(C)CC3)ccc2N2C1=NC[C@H]2C` [Example 80, (R)-4-((1,3-dimethyl-1H-pyrazol-4-yl)methyl)-1-methyl-N-(1-methylcyclopropyl)-5-oxo-1,2,4,5-tetrahydroimidazo[1,2-a]quinazoline-7-sulfonamide], the IC50 is not above 0.1 µM.
